Measurements as given in publication PMC5004176, “The antifungal plant defensin AtPDF2.3 from Arabidopsis thaliana blocks potassium channels” (Scientific Reports, 2016).
Ends that are not written are not given here.

Tests used:
Nav1.2 = test: Two-electrode voltage-clamp on Nav1.2 expressed in X. laevis oocytes; format: cell-based; conditions: 5 μM, n ≥ 4
Nav1.5 = test: Two-electrode voltage-clamp on Nav1.5 expressed in X. laevis oocytes; format: cell-based; conditions: 5 μM, n ≥ 4
Fusarium oxysporum = test: Fungal growth inhibitory assay; format: cell-based; conditions: half strength PDB, 10^4 spores/mL, 48 hours, determined microscopically, n ≥ 3; read-out: IC50 (growth inhibition)
[1] = tested on: Saccharomyces cerevisiae BY4741 WT; test: Yeast growth inhibitory assay; format: cell-based; conditions: MM medium, ~10^6 cells/mL, 24 hours, OD490nm, mean ± SEM, n ≥ 3, read-out: IC50 (growth inhibition)
[2] = tested on: Saccharomyces cerevisiae BY4743 WT; test: Yeast growth inhibitory assay; format: cell-based; conditions: MM medium, 24 hours, OD490nm, mean ± SEM, n ≥ 3, read-out: IC50 (growth inhibition)
[3] = tested on: Saccharomyces cerevisiae BY4741 ∆trk1; test: Yeast growth inhibitory assay; format: cell-based; conditions: BY4741 ∆trk1, MM medium, 24 hours, OD490nm, mean ± SEM, n ≥ 3; read-out: IC50 (growth inhibition)
[4] = tested on: Saccharomyces cerevisiae BY4741 ∆hal5; test: Yeast growth inhibitory assay; format: cell-based; conditions: BY4741 ∆hal5, MM medium, 24 hours, OD490nm, mean ± SEM, n ≥ 3; read-out: IC50 (growth inhibition)
[5] = tested on: Saccharomyces cerevisiae BY4741 ∆prm6; test: Yeast growth inhibitory assay; format: cell-based; conditions: BY4741 ∆prm6, MM medium, 24 hours, OD490nm, mean ± SEM, n ≥ 3; read-out: IC50 (growth inhibition)
[6] = tested on: Saccharomyces cerevisiae BY4741 ∆kch1; test: Yeast growth inhibitory assay; format: cell-based; conditions: BY4741 ∆kch1, MM medium, 24 hours, OD490nm, mean ± SEM, n ≥ 3; read-out: IC50 (growth inhibition)
Kv1.3 = test: Two-electrode voltage-clamp on Kv1.3 expressed in X. laevis oocytes; conditions: 3 μM, n ≥ 3
Method: (§1) For the expression of the voltage-gated potassium channels (rKv1.1, rKv1.2, hKv1.3, rKv1.4, rKv1.5, rKv1.6, Shaker IR, hKv3.1, rKv4.3, and hERG) in Xenopus laevis oocytes, the linearized plasmids were transcribed using the T7 or SP6 mMESSAGE-mMACHINE transcription kit (Ambion). The harvesting of stage V–VI oocytes from an anaesthetized female X. laevis frog was previously described[59]. Oocytes were injected with 50 nL of cRNA at a concentration of 1 ng/nL using a micro-injector (Drummond Scientific, USA). The oocytes were incubated in a solution containing (in mM): NaCl, 96; KCl, 2; CaCl2, 1.8; MgCl2, 2 and HEPES, 5 (pH 7.4), supplemented with 50 mg/L gentamycin sulfate.
(§2) Two-electrode voltage-clamp recordings were performed at room temperature (18–22 °C) using a Geneclamp 500 amplifier (Molecular Devices, USA) controlled by a pClamp data acquisition system (Axon Instruments, USA). Whole cell currents from oocytes were recorded 1–4 days after injection. Bath solution composition was ND96 (in mM): NaCl, 96; KCl, 2; CaCl2, 1.8; MgCl2, 2 and HEPES, 5 (pH 7.4) or HK (in mM): NaCl, 2; KCl, 96; CaCl2, 1.8; MgCl2, 2 and HEPES, 5 (pH 7.4). Voltage and current electrodes were filled with 3 M KCl. Resistances of both electrodes were kept between 0.7 and 1.5 MΩ. […] GV curves were calculated from IV relationships as follows: gK = IK/(Em−EK) with EK = (RT/zF)ln[K #0]o/[K #0]i. […]

Kv2.1 = test: Two-electrode voltage-clamp on Kv2.1 expressed in X. laevis oocytes; conditions: 3 μM, n ≥ 3
Method: as §1, §2

Kv4.2 = test: Two-electrode voltage-clamp on Kv4.2 expressed in X. laevis oocytes; conditions: 3 μM, n ≥ 3
Method: as §1, §2

Shaker IR = test: Two-electrode voltage-clamp on Shaker IR expressed in X. laevis oocytes; conditions: 3 μM, n ≥ 3
Method: as §1, §2

rAtPDF2.3: Arabidopsis thaliana plant defensin AtPDF2.3 produced recombinantly in Pichia pastoris (RTCESKSHRFKGPCVSTHNCANVCHNEGFGGGKCRGFRRRCYCTRHC; ends and bridges not checked; cysteine pairing not given here)
activity on Nav1.2 (Nav1.2): does not show activity | activity on Nav1.5 (Nav1.5): does not show activity | IC50 (Fusarium oxysporum): 4.4 ± 1.6 µM | IC50 [1]: 8.1 ± 0.9 µM | IC50 [2]: 3.3 µM | IC50 [3]: 1.5 µM | IC50 [4]: 4 ± 0.4 µM | IC50 [5]: 7.6 ± 0.2 µM | IC50 [6]: 8.9 ± 0.3 µM | activity on Kv1.3 at single concentration (Kv1.3): no effect | activity on Kv2.1 (Shab) at single concentration (Kv2.1): no effect | activity on Kv4.2 (Shal) at single concentration (Kv4.2): no effect | activity on Shaker IR at single concentration (Shaker IR): no effect
